Experimental data published in patent US20240059689A1, “PURINE DERIVATIVES AS ANTICANCER AGENTS” (Tango Therapeutics, Inc., priority 2021, published 2024).

Tests used:
HCC1954 = test: Viability assay, BRCA1 WT cell line HCC1954; assay type: cell-based; conditions: Homo sapiens, HCC1954, viability, read-out: HCC1954 rel IC50
From the text: (§1) Table 1 also indicates IC50 values in a viability assay for a non-isogenic pair of BRCA1 mutant (column 5-MDA-MB-436) and BRCA1 WT (column 6—HCC1954) cell lines. These values indicate the effect of treatment with compound on cell survival.

monoubiquitinated PCNA = test: AlphaLISA assay measuring monoubiquitinated PCNA in MDA-MB-436; assay type: cell-based; conditions: Homo sapiens, MDA-MB-436, monoubiquitinated PCNA, read-out: Alpha Lisa IC50
From the text: Table 1 also indicates IC50 values for exemplary compounds in an AlphaLISA assay measuring monoubiquitinated PCNA in a BRCA1 mutant cell line (MDA-MB-436; column 7).

USP1-UAF1 = USP1-UAF1 (Homo sapiens, UniProt O94782); test: Ubiquitin Rhodamine assay of USP1-UAF1 activity; assay type: biochemical
Description: Certain compounds of the disclosure were assessed for USP1-UAF1 activity in a Ubiquitin Rhodamine assay as described in Biology Example 1.

MDA-MB-436 = test: Viability assay, BRCA1 mutant cell line MDA-MB-436; assay type: cell-based; conditions: Homo sapiens, MDA-MB-436, viability, BRCA1 mutant MDA-MB-436; read-out: MDA-MB-436 rel IC50
From the text: as §1

USP1-UAF1, sequence (O94782 whole entry): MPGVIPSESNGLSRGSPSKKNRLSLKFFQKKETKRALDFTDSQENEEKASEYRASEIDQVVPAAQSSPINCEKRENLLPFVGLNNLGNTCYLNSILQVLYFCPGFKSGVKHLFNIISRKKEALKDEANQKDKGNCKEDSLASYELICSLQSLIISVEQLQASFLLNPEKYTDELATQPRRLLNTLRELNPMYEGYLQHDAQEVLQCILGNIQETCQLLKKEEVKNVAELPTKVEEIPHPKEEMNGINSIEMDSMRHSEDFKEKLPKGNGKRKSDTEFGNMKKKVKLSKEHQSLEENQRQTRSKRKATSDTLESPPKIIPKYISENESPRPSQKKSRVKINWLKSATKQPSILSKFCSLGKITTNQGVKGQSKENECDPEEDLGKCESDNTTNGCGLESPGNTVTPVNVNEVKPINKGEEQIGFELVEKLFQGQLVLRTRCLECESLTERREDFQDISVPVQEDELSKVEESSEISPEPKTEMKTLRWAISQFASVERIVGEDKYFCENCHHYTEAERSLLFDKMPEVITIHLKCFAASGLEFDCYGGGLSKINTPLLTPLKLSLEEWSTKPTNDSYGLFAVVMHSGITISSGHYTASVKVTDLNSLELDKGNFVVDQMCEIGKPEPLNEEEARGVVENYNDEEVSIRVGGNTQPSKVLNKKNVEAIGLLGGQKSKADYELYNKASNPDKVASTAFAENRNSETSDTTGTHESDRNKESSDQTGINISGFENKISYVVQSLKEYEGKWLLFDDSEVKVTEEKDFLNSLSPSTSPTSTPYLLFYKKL
USP1-UAF1, sequence (Q8TAF3 whole entry partner): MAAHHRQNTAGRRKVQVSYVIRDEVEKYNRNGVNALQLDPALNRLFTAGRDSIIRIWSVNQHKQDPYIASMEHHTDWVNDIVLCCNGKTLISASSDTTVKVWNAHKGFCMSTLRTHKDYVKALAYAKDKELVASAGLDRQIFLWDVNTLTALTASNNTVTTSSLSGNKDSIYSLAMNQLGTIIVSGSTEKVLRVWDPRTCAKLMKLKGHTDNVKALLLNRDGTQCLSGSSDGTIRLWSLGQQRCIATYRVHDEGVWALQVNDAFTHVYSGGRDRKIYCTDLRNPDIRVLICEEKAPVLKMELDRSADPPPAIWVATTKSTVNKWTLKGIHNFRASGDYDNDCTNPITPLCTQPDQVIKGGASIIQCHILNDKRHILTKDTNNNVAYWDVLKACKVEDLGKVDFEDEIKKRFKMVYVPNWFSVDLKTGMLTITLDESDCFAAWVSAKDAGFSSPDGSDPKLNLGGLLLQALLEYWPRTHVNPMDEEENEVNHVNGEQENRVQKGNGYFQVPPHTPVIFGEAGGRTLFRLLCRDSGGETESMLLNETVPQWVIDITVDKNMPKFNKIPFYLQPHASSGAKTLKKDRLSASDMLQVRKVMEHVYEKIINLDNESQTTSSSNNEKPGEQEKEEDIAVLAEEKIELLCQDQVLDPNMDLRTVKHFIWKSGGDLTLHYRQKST

Row | SMILES | IC50 (HCC1954) | IC50 (monoubiquitinated PCNA) | IC50 (USP1-UAF1) | IC50 (MDA-MB-436)
1 | CC(C)n1cc(C(F)(F)F)nc1-c1ccc(Cn2c(=N)n(C)c3cnc(-c4cccnc4OC(F)F)nc32)cc1 [Example T-051, 2-[2-(difluoromethoxy)-3-pyridyl]-9-[[4-[1-isopropyl-4-(trifluoromethyl)imidazol-2-yl]phenyl]methyl]-7-methyl-purin-8-imine] | ≥ 10 µM | 0.25 to 10 µM | 0.1 to 10 µM | 0.25 to 10 µM
2 | COc1cc(-c2nc(C(F)(F)F)cn2C)ccc1Cn1c(=N)n(C)c2cnc(-c3ccccc3C(F)(F)F)nc21 [Example T-029] | 0.25 to 10 µM | 0.1 to 0.25 µM | 0.1 to 10 µM | 0.1 to 0.25 µM
3 | Cc1cccc(-c2ncc3c(n2)n(Cc2ccc(-c4nc(C(F)(F)F)cn4C)cc2)c(=N)n3C)c1C(C)C [Example T-002, 2-(2-isopropyl-3-methyl-phenyl)-7-methyl-9-[[4-[1-methyl-4-(trifluoromethyl)imidazol-2-yl]phenyl]methyl]purin-8-imine] | 0.25 to 10 µM | 0.25 to 10 µM | 0.03 to 0.1 µM | 0.1 to 0.25 µM
4 | CC(C)c1ccccc1-c1ncc2c(n1)n(Cc1cc(F)c(-c3nc(C(F)(F)F)cn3C)c(F)c1)c(=N)n2C [Example A-43, 9-(3,5-difluoro-4-(1-methyl-4-(trifluoromethyl)-1H-imidazol-2-yl)benzyl)-2-(2-isopropylphenyl)-7-methyl-7,9-dihydro-8H-purin-8-imine] | – | 0.25 to 10 µM | 0.03 to 0.1 µM | –
5 | CC(C)c1ccc(F)cc1-c1ncc2c(n1)n(Cc1ccc(-c3nc(C(F)(F)F)cn3C)cc1)c(=N)n2C [Example B-11, 2-(5-fluoro-2-isopropylphenyl)-7-methyl-9-(4-(1-methyl-4-(trifluoromethyl)-1H-imidazol-2-yl)benzyl)-7,9-dihydro-8H-purin-8-imine] | 0.25 to 10 µM | < 0.1 µM | < 0.03 µM | 0.1 to 0.25 µM
6 | CC(C)c1ccccc1-c1ncc2c(n1)n(CC1CCN(c3nc(C(F)(F)F)cn3C)CC1)c(=N)n2C [Example B-1, 2-(2-isopropylphenyl)-7-methyl-9-((1-(1-methyl-4-(trifluoromethyl)-1H-imidazol-2-yl)piperidin-4-yl)methyl)-7H-purin-8(9H)-imine] | 0.25 to 10 µM | 0.1 to 0.25 µM | 0.1 to 10 µM | 0.1 to 0.25 µM
7 | COCCn1c(=N)n(Cc2ccc(-c3nc(C(F)(F)F)cn3C)cc2)c2nc(-c3c(OC)ncnc3C3CC3)ncc21 [Example T-134, 2-(4-cyclopropyl-6-methoxy-pyrimidin-5-yl)-7-(2-methoxyethyl)-9-[[4-[1-methyl-4-(trifluoromethyl)imidazol-2-yl]phenyl]methyl]purin-8-imine] | ≥ 10 µM | 0.25 to 10 µM | 0.1 to 10 µM | 0.1 to 0.25 µM
8 | Cn1cc(C(F)(F)F)nc1-c1ccc(Cn2c(=N)n(C)c3cnc(-c4c(Cl)cnn4C)nc32)cc1 [Example T-067] | ≥ 10 µM | 0.25 to 10 µM | 0.03 to 0.1 µM | 0.25 to 10 µM
9 | COc1ncnc(C(F)(F)F)c1-c1ncc2c(n1)n(Cc1ccc(-c3nc(C(F)(F)F)cn3C)cc1)c(=N)n2C [Example T-038, 2-[4-methoxy-6-(trifluoromethyl)pyrimidin-5-yl]-7-methyl-9-[[4-[1-methyl-4-(trifluoromethyl)imidazol-2-yl]phenyl]methyl]purin-8-imine] | ≥ 10 µM | < 0.1 µM | 0.03 to 0.1 µM | 0.1 to 0.25 µM
10 | COc1ncnc(C2CC2)c1-c1ncc2c(n1)n(Cc1ccc(-n3nc(C(F)(F)F)cc3C)cc1)c(=N)n2CC(F)(F)F [Example T-098, 2-(4-cyclopropyl-6-methoxy-pyrimidin-5-yl)-9-[[4-[5-methyl-3-(trifluoromethyl)pyrazol-1-yl]phenyl]methyl]-7-(2,2,2-trifluoroethyl)purin-8-imine] | ≥ 10 µM | 0.1 to 0.25 µM | 0.03 to 0.1 µM | < 0.1 µM
11 | COc1ncnc(C2CC2)c1-c1ncc2c(n1)n(C1(c3ccc(-c4nc(C(F)(F)F)cn4C)cc3)CC1)c(=N)n2C [Example T-086] | ≥ 10 µM | 0.1 to 0.25 µM | – | 0.1 to 0.25 µM
12 | CC(C)c1ccccc1-c1ncc2c(n1)n(Cc1ccc(-c3nc(C(F)(F)F)cn3C)c(F)c1)c(=N)n2C [Example A-33, 9-(3-fluoro-4-(1-methyl-4-(trifluoromethyl)-1H-imidazol-2-yl)benzyl)-2-(2-isopropylphenyl)-7-methyl-7,9-dihydro-8H-purin-8-imine] | – | < 0.1 µM | < 0.03 µM | –
13 | Cn1cc(C(F)(F)F)nc1-c1ccc(Cn2c(=N)n(C)c3cnc(-c4ccccc4C(F)(F)F)nc32)cc1 [Example T-045] | – | 0.1 to 0.25 µM | < 0.03 µM | < 0.1 µM
14 | Cn1cc(C(F)(F)F)nc1-c1ccc(Cn2c(=N)n(C)c3cnc(-c4c(C(F)(F)F)cnn4C)nc32)cc1 [Example T-010] | – | 0.1 to 0.25 µM | 0.03 to 0.1 µM | 0.25 to 10 µM
15 | CCOc1cc(C(F)(F)F)nn1-c1ccc(Cn2c(=N)n(C)c3cnc(-c4ccccc4C(F)(F)F)nc32)cn1 [Example T-091] | ≥ 10 µM | 0.25 to 10 µM | – | 0.25 to 10 µM
16 | Cn1cc(C(F)(F)F)nc1-c1ccc(Cn2c(=N)n(C)c3cnc(-c4ccccc4C(F)(F)F)nc32)cn1 [Example T-073] | ≥ 10 µM | – | 0.1 to 10 µM | 0.25 to 10 µM
17 | Cn1cc(C(F)(F)F)nc1-c1ccc(Cn2c(=N)n(C)c3cnc(-c4cccnc4CC(F)(F)F)nc32)cc1 [Example T-042] | ≥ 10 µM | – | 0.1 to 10 µM | 0.25 to 10 µM
18 | COc1ncnc(C2CC2)c1-c1ncc2c(n1)n(Cc1cc(C)c(-c3nc(C(F)(F)F)cn3C)cc1C)c(=N)n2C [Example T-026] | ≥ 10 µM | – | 0.1 to 10 µM | 0.25 to 10 µM
19 | CNC(=O)c1nc(-c2ccccc2C(C)C)nc2c1n(C)c(=N)n2Cc1ccc(-c2nc(C(F)(F)F)cn2C)cc1 [Example A-39, 8-imino-2-(2-isopropylphenyl)-N, 7-dimethyl-9-(4-(1-methyl-4-(trifluoromethyl)-1H-imidazol-2-yl)benzyl)-8,9-dihydro-7H-purine-6-carboxamide] | ≥ 10 µM | – | 0.1 to 10 µM | 0.25 to 10 µM
20 | CC(C)c1ccccc1-c1nc(C(=O)N(C)C)c2c(n1)n(Cc1ccc(-c3nc(C(F)(F)F)cn3C)cc1)c(=N)n2C [Example A-40, 8-imino-2-(2-isopropylphenyl)-N,N, 7-trimethyl-9-(4-(1-methyl-4-(trifluoromethyl)-1H-imidazol-2-yl)benzyl)-8,9-dihydro-7H-purine-6-carboxamide] | ≥ 10 µM | – | 0.1 to 10 µM | 0.25 to 10 µM
21 | CC(C)c1ccccc1-c1nc(O)c2c(n1)n(Cc1ccc(-c3nc(C(F)(F)F)cn3C)cc1)c(=N)n2C [Example A-32, 8-imino-2-(2-isopropylphenyl)-7-methyl-9-(4-(1-methyl-4-(trifluoromethyl)-1H-imidazol-2-yl)benzyl)-8,9-dihydro-7H-purin-6-ol] | ≥ 10 µM | – | 0.1 to 10 µM | 0.25 to 10 µM
22 | Cn1cc(C(F)(F)F)nc1-c1ccc(Cn2c(=N)n(C)c3cnc(-c4cccnc4C4(C#N)CC4)nc32)cc1 [Example T-041] | ≥ 10 µM | – | 0.1 to 10 µM | 0.25 to 10 µM
23 | Cn1cc(C(F)(F)F)nc1-c1ccc(Cn2c(=N)n(C)c3cnc(-c4cccnc4C(F)(F)F)nc32)cc1 [Example T-025] | ≥ 10 µM | – | 0.1 to 10 µM | 0.25 to 10 µM
